Assay results published in paper PMC9395488, “First-in-human study of IM156, a novel potent biguanide oxidative phosphorylation (OXPHOS) inhibitor, in patients with advanced solid tumors” (Investigational New Drugs, 2022).

Test system: patients with advanced solid tumors
Assay: First-in-human phase 1 dose-escalation study: safety, DLTs, adverse events
Assay type: in vivo
Excerpt: This multicenter first-in-human dose-escalation phase 1 study (clinicaltrials.gov identifier: NCT03272256) was designed to determine the MTD or RP2D and to evaluate the safety and tolerability of IM156. Secondary endpoints included PK characteristics, efficacy assessment (objective response rate [ORR], disease control rate [DCR], duration of response [DoR] and progression-free survival [PFS]). Furthermore, exploratory objectives included identification and profiling of IM156 metabolites, evaluations of exploratory PD markers of IM156, and evaluations of any potential relationship between putative biomarkers and safety/efficacy parameters of IM156. The study was conducted in accordance with Good Clinical Practice, the International Council for Harmonisation, and guidelines governing clinical study conduct and the ethical principles originating from the Declaration of Helsinki. The study was approved by each Institutional Review Board and patients provided written informed consent. Patients were enrolled at three sites in South Korea.
The initial dose and schedule of IM156 was chosen based on animal toxicology studies. […] IM156 was administered in the fasted state, with no food for at least 2 h before and 1 h after dosing.
Three DLT-evaluable patients were enrolled at each dose level. If there were no DLTs or other prohibitive adverse events (AEs), the Safety Committee was allowed to recommend escalation to the next highest dose level. If 1 DLT occurred in the first 3 DLT-evaluable patients, enrollment in that cohort was expanded to an additional 3 DLT-evaluable patients; if ≥ 2 DLTs were reported in a cohort, that dose was considered above the MTD.
Safety was assessed through vital signs, weight, laboratory assessments, physical examinations, electrocardiogram, and reporting of AEs as graded by the National Cancer Institute’s Common Terminology Criteria for Adverse Events v4.03 (NCI-CTCAE).
DLTs were defined as the following AEs if they were attributed as related to IM156: asymptomatic grade 4 neutropenia lasting for ≥ 5 days; febrile neutropenia, regardless of grade; grade 4 thrombocytopenia or grade 3 thrombocytopenia with bleeding; any grade ≥ 3 non-hematologic AE (except grade 3 hypertension and grade 3 nausea, vomiting or diarrhea for which proper measures for prevention and treatment were not implemented, and alopecia); blood lactate levels > 5 mmol; grade ≥ 2 AE prohibiting dosing of IM156 for ≥ 21 continuous days except for alterations in serum calcium or phosphorus levels. The safety analysis includes all patients who received at least one dose of study drug.
The safety population was defined as all patients who received at least one dose of IM156. The PK population was not defined in the protocol but included all patients with sufficient PK data to perform adequate PK modeling. The efficacy population included all patients who underwent at least one tumor imaging assessment while receiving IM156. Safety was assessed using descriptive statistics (e.g., DLTs, AEs, laboratory tests, physical examination, 12-lead ECG). The incidence and number of events were reported for the DLTs observed in Cycle 1 per dose group. […] Adverse events and TRAEs were standardized with the System Organ Class and the Preferred Term using the Medical Dictionary for Regulatory Activities v23.0. In addition, TEAEs, serious adverse events (SAEs), TEAE severity, and TEAEs leading to withdrawal were presented by dose group. Efficacy data were to be presented by Waterfall and Swim Lane plots. Time to event endpoints (e.g., DoR, PFS) were determined using Kaplan–Meier estimations with the median value for each endpoint summarized.

For `NC(=Nc1ccc(OC(F)(F)F)cc1)N=C(N)N1CCCC1` [IM156], the “TEAE Purpura grade 2” value (DL7 1200 mg orally daily (n=4)) was 0, the “TEAE Purpura grade 3” value (DL7 1200 mg orally daily (n=4)) was 0 and the “TEAE Purpura grade 4” value (DL7 1200 mg orally daily (n=4)) was 0. The “TEAE Urinary retention grade 1” value (DL7 1200 mg orally daily (n=4)) was 0, the “TEAE Urinary retention grade 2” value (DL7 1200 mg orally daily (n=4)) was 0 and the “TEAE Urinary retention grade 3” value (DL7 1200 mg orally daily (n=4)) was 0. For the same compound, the “TEAE Urinary retention grade 4” value (DL7 1200 mg orally daily (n=4)) was 0, the “TEAE Urinary tract disorder grade 1” value (DL7 1200 mg orally daily (n=4)) was 0 and the “TEAE Urinary tract disorder grade 2” value (DL7 1200 mg orally daily (n=4)) was 1. The “TEAE Urinary tract disorder grade 3” value (DL7 1200 mg orally daily (n=4)) was 0, the “TEAE Urinary tract disorder grade 4” value (DL7 1200 mg orally daily (n=4)) was 0 and the “TEAE Adrenal insufficiency grade 1” value (Total) was 0. For the same compound, the “TEAE Adrenal insufficiency grade 2” value (Total) was 1, the “TEAE Adrenal insufficiency grade 3” value (Total) was 0 and the “TEAE Adrenal insufficiency grade 4” value (Total) was 0. For the same compound, the “TEAE Anaemia grade 1” value (Total) was 0, the “TEAE Anaemia grade 2” value (Total) was 3 and the “TEAE Anaemia grade 3” value (Total) was 2. For the same compound, the “TEAE Anaemia grade 4” value (Total) was 0, the “TEAE Appendicitis perforated grade 1” value (Total) was 0 and the “TEAE Appendicitis perforated grade 2” value (Total) was 0. For the same compound, the “TEAE Appendicitis perforated grade 3” value (Total) was 1, the “TEAE Appendicitis perforated grade 4” value (Total) was 0 and the “TEAE Back pain grade 1” value (Total) was 0. The “TEAE Back pain grade 2” value (Total) was 2, the “TEAE Back pain grade 3” value (Total) was 0 and the “TEAE Back pain grade 4” value (Total) was 0. For the same compound, the “TEAE Cystitis grade 1” value (Total) was 0, the “TEAE Cystitis grade 2” value (Total) was 1 and the “TEAE Cystitis grade 3” value (Total) was 0. For the same compound, the “TEAE Cystitis grade 4” value (Total) was 0, the “TEAE Dry skin grade 1” value (Total) was 0 and the “TEAE Dry skin grade 2” value (Total) was 1. The “TEAE Dry skin grade 3” value (Total) was 0, the “TEAE Dry skin grade 4” value (Total) was 0 and the “TEAE Flank pain grade 1” value (Total) was 0. The “TEAE Flank pain grade 2” value (Total) was 1, the “TEAE Flank pain grade 3” value (Total) was 0 and the “TEAE Flank pain grade 4” value (Total) was 0. For the same compound, the “TEAE Hypertension grade 1” value (Total) was 0, the “TEAE Hypertension grade 2” value (Total) was 1 and the “TEAE Hypertension grade 3” value (Total) was 0. The “TEAE Hypertension grade 4” value (Total) was 0, the “TEAE Hypotension grade 1” value (Total) was 0 and the “TEAE Hypotension grade 2” value (Total) was 1. The “TEAE Hypotension grade 3” value (Total) was 0, the “TEAE Hypotension grade 4” value (Total) was 0 and the “TEAE Insomnia grade 1” value (Total) was 2. The “TEAE Insomnia grade 2” value (Total) was 1, the “TEAE Insomnia grade 3” value (Total) was 0 and the “TEAE Insomnia grade 4” value (Total) was 0. For the same compound, the “TEAE Pain in extremity grade 1” value (Total) was 1, the “TEAE Pain in extremity grade 2” value (Total) was 1 and the “TEAE Pain in extremity grade 3” value (Total) was 0. The “TEAE Pain in extremity grade 4” value (Total) was 0, the “TEAE Pruritus grade 1” value (Total) was 1 and the “TEAE Pruritus grade 2” value (Total) was 0. For the same compound, the “TEAE Pruritus grade 3” value (Total) was 0, the “TEAE Pruritus grade 4” value (Total) was 0 and the “TEAE Psychiatric disorders grade 1” value (Total) was 2. The “TEAE Psychiatric disorders grade 2” value (Total) was 1, the “TEAE Psychiatric disorders grade 3” value (Total) was 0 and the “TEAE Psychiatric disorders grade 4” value (Total) was 0. For the same compound, the “TEAE Purpura grade 1” value (Total) was 1, the “TEAE Purpura grade 2” value (Total) was 0 and the “TEAE Purpura grade 3” value (Total) was 0. The “TEAE Purpura grade 4” value (Total) was 0, the “TEAE Urinary retention grade 1” value (Total) was 0 and the “TEAE Urinary retention grade 2” value (Total) was 1. For the same compound, the “TEAE Urinary retention grade 3” value (Total) was 0, the “TEAE Urinary retention grade 4” value (Total) was 0 and the “TEAE Urinary tract disorder grade 1” value (Total) was 0. The “TEAE Urinary tract disorder grade 2” value (Total) was 1, the “TEAE Urinary tract disorder grade 3” value (Total) was 0 and the “TEAE Urinary tract disorder grade 4” value (Total) was 0. The “TRAE Abdominal Pain, > G3 (patients)” value (Total, N = 22) was 0, the “TRAE Abdominal Pain, All grades (patients)” value (Total, N = 22) was 2 and the “TRAE Blood Lactic Acid increased, > G3 (patients)” value (Total, N = 22) was 0. The “TRAE Blood Lactic Acid increased, All grades (patients)” value (Total, N = 22) was 2, the “TRAE Constipation, > G3 (patients)” value (Total, N = 22) was 0 and the “TRAE Constipation, All grades (patients)” value (Total, N = 22) was 2. For the same compound, the “TRAE Decreased appetite, > G3 (patients)” value (Total, N = 22) was 0, the “TRAE Diarrhoea, > G3 (patients)” value (Total, N = 22) was 0 and the “TRAE Diarrhoea, All grades (patients)” value (Total, N = 22) was 10. The “TRAE Fatigue, > G3 (patients)” value (Total, N = 22) was 0, the “TRAE Fatigue, All grades (patients)” value (Total, N = 22) was 4 and the “TRAE Insomnia, > G3 (patients)” value (Total, N = 22) was 0. For the same compound, the “TRAE Insomnia, All grades (patients)” value (Total, N = 22) was 2, the “TRAE Nausea, > G3 (patients)” value (Total, N = 22) was 3 and the “TRAE Nausea, All grades (patients)” value (Total, N = 22) was 15. The “TRAE Vomiting, > G3 (patients)” value (Total, N = 22) was 0, the “TRAE Vomiting, All grades (patients)” value (Total, N = 22) was 9 and the “TEAE Abdominal discomfort, grade 1” value (Total, all dose levels) was 1. For the same compound, the “TEAE Abdominal distension, grade 2” value (Total, all dose levels) was 1, the “TEAE Abdominal pain upper, grade 2” value (Total, all dose levels) was 1 and the “TEAE Abdominal pain, grade 1” value (Total, all dose levels) was 2. The “TEAE Abdominal pain, grade 2” value (Total, all dose levels) was 3, the “TEAE Abdominal pain, grade 3” value (Total, all dose levels) was 1 and the “TEAE Akathisia, grade 2” value (Total, all dose levels) was 1. The “TEAE Alanine aminotransferase increased, grade 1” value (Total, all dose levels) was 3, the “TEAE Alanine aminotransferase increased, grade 3” value (Total, all dose levels) was 1 and the “TEAE Ascites, grade 1” value (Total, all dose levels) was 1. The “TEAE Aspartate aminotransferase increased, grade 1” value (Total, all dose levels) was 2, the “TEAE Aspartate aminotransferase increased, grade 2” value (Total, all dose levels) was 1 and the “TEAE Aspartate aminotransferase increased, grade 3” value (Total, all dose levels) was 1. The “TEAE Asthenia, grade 1” value (Total, all dose levels) was 3, the “TEAE Blood alkaline phosphatase increased, grade 2” value (Total, all dose levels) was 1 and the “TEAE Blood alkaline phosphatase increased, grade 3” value (Total, all dose levels) was 1. The “TEAE Blood creatinine increased, grade 1” value (Total, all dose levels) was 3, the “TEAE Blood lactic acid increased, grade 1” value (Total, all dose levels) was 2 and the “TEAE Chest pain, grade 1” value (Total, all dose levels) was 1. The “TEAE Constipation, grade 1” value (Total, all dose levels) was 5, the “TEAE Constipation, grade 2” value (Total, all dose levels) was 1 and the “TEAE Cough, grade 1” value (Total, all dose levels) was 3. For the same compound, the “TEAE Decreased appetite, grade 1” value (Total, all dose levels) was 3, the “TEAE Decreased appetite, grade 2” value (Total, all dose levels) was 1 and the “TEAE Diarrhoea, grade 1” value (Total, all dose levels) was 9.
